In US20260374766A1, “METHODS FOR TREATING CANCER” (Antares Therapeutics, Inc., priority 2022, published 2026):

Tests used:
[1] = target: T1, p53 Y220C mutant protein (amino acid residues 94-293) (Homo sapiens, UniProt P04637, Y220C); test: Surface Plasmon Resonance (SPR) assay, Kd_kinetic; assay type: binding; conditions: SPR; p53 Y220C; read-out: SPR P53 Y220C KD kinetic
T1 construct: p53 Y220C mutant protein (amino acid residues 94-293)
Summary of the method: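 Temperature held at 16 or 20 °C during Biacore 8K runs. Buffer: 50 mM Tris, pH 7.5, 100 mM NaCl, 1 mM DTT, 0.01% Brij35, 0.05% Tween-20, 1% DMSO.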

[2] = target: T1, p53 Y220C mutant protein (amino acid residues 94-293); test: Thermal Shift Assay (TSA), dTM; assay type: binding; conditions: p53 Y220C, read-out: TSA P53 Y220C dTM; for ΔTm at 10 µM: 10 uM compound; for ΔTm at 100 µM: 100 uM compound
Summary of the method: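 Recombinant p53 Y220C core (residues 94-293) at 5 μM was incubated with 10 μM or 100 μM compound for 3 hours at 20 °C in 20 mM HEPES pH7.4, 100 mM NaCl, 0.01% Pluronic F-127, 1% DMSO with 400-fold diluted Sypro Orange. Melting was followed from 30 °C to 50 °C at 0.03 °C/second, and TM came from a Boltzmann two-state fit.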

[3] = target: p53 Y220C (Homo sapiens, UniProt P04637, Y220C); test: Luciferase Reporter Assay (Luc), p53 response element, NClH1299 cells with inducible p53 Y220C; assay type: cell-based; conditions: luciferase reporter, NClH1299 inducible p53 Y220C, 6 hour; for AC50: read-out: Luc P53 Y220C AC50
Summary of the method: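 Luminescence readout (One-Glo, 5 min shaking at RT, read at once) after 6 h compound exposure; cells pre-induced 24 h with 0.5 ug/mL doxycycline, 5,000/well.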

[4] = system: NUGC3 p53 Y220C; test: Cell Proliferation Assay (CellTiter-Glo, CTG), NUGC3 p53 Y220C; assay type: cell-based; conditions: Homo sapiens, NUGC-3, 120 h, NUGC3 cells, 5 days, CellTiter-Glo
Summary of the method: (§1)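 NClH1299 lines stably transduced with Tet-inducible p53 Y220C or R273H, plus NUGC3, were treated with compound for 5 days at 250-500 cells/well. IC50 derived from CellTiter-Glo luminescent signal after 10 min room-temperature incubation.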

[5] = system: H1299 p53 Y220C; test: Cell Proliferation Assay (CellTiter-Glo, CTG), H1299 p53 Y220C (NClH1299-inducible p53 Y220C); assay type: cell-based; conditions: Homo sapiens, NCI-H1299, 120 h, NClH1299-inducible p53 Y220C cells, 5 days, CellTiter-Glo
Summary of the method: as §1

[6] = system: H1299 p53 R273H; test: Cell Proliferation Assay (CellTiter-Glo, CTG), H1299 p53 R273H (NClH1299-inducible p53 R273H); assay type: cell-based; conditions: Homo sapiens, NCI-H1299, 120 h, NClH1299-inducible p53 R273H cells, 5 days, CellTiter-Glo
Summary of the method: as §1

Row | SMILES | Kd [1] [nM] | ΔTm at 10 µM [2] [°C] | ΔTm at 100 µM [2] [°C] | AC50 [3] [nM] | Emax [3] [%] | IC50 [5] [nM] | IC50 [6] [nM] | IC50 [4] [nM]
1 | CNC(=O)c1cnc(OC)c(NCC#Cc2nn3c(N[C@@H]4CCN(C)C[C@@H]4F)cccc3c2SC(F)(F)F)c1 [Example 260] | < 10 | ≥ 10 | – | < 750 | 80 to 90 | < 750 | 8000 to 10000 | < 750
2 | CNC(=O)c1cnc(OC)c(NCC#Cc2nc3c(N[C@@H]4CCN(C)C[C@@H]4F)cccn3c2CC(F)(F)F)c1 [Example 261] | < 10 | 5 to 10 | ≥ 10 | 1500 to 3000 | 70 to 80 | 750 to 1500 | ≥ 10000 | < 750
3 | CNC(=O)c1cnc(OC)c(NCC#Cc2nc3c(N[C@@H]4C[C@H]5CC[C@H](N5)[C@@H]4F)cccn3c2SC(F)(F)F)c1 [Example 264] | < 10 | ≥ 10 | ≥ 10 | < 750 | 70 to 80 | < 750 | 8000 to 10000 | < 750
4 | CNC(=O)c1cnc(OC)c(NCC#Cc2nn3c(N[C@@H]4CCN(C)C[C@@H]4F)cccc3c2SC(F)F)c1 [Example 268] | < 10 | ≥ 10 | ≥ 10 | < 750 | > 90 | < 750 | < 5000 | < 750
5 | CNC(=O)c1ccc(OC)c(NCC#Cc2nn3c(N[C@@H]4C[C@H]5CC[C@H](N5)[C@@H]4F)cccc3c2SC(F)(F)F)c1 [Example 269] | < 10 | ≥ 10 | 5 to 10 | < 750 | 70 to 80 | < 750 | < 5000 | < 750
6 | CNC(=O)c1cnc(OC)c(NCC#Cc2nn3c(N[C@@H]4CCNC[C@@H]4F)cccc3c2SC(F)(F)F)c1 [Example 270] | < 10 | ≥ 10 | – | < 750 | 80 to 90 | < 750 | < 5000 | < 750
7 | CNC(=O)c1cc(NCC#Cc2nc3c(N[C@@H]4CCN(C)C[C@@H]4F)cccn3c2SC(F)(F)F)c2nccn2c1 [Example 277] | < 10 | ≥ 10 | – | < 750 | > 90 | < 750 | ≥ 10000 | < 750
8 | CNC(=O)c1ccc(NCC#Cc2nc3c(N[C@@H]4C[C@@H]5COC[C@H]([C@@H]4F)N5C)cccn3c2SC(F)(F)F)c(OC)c1 [Example 283] | < 10 | ≥ 10 | – | < 750 | 80 to 90 | < 750 | ≥ 10000 | < 750
9 | CNC(=O)c1ccc(OC)c(NCC#Cc2nn3c(N[C@@H]4C[C@H]5CC[C@@H]([C@@H]4F)N5C)cccc3c2SC(F)(F)F)c1 [Example 284] | < 10 | ≥ 10 | ≥ 10 | < 750 | 80 to 90 | < 750 | < 5000 | < 750
10 | CCNC(=O)c1ccc(OC)c(NCC#Cc2nn3c(N[C@@H]4CCN(C)C[C@@H]4F)cccc3c2SC(F)(F)F)c1 [Example 285] | < 10 | ≥ 10 | ≥ 10 | < 750 | 80 to 90 | < 750 | 5000 to 8000 | < 750
11 | CNC(=O)c1ccc(OC)c(NCC#Cc2nn3c(N[C@H]4C[C@@H]5CC[C@@H](N5)[C@H]4F)cccc3c2SC(F)(F)F)c1 [Example 287] | < 10 | ≥ 10 | – | < 750 | 80 to 90 | < 750 | < 5000 | < 750
12 | CNC(=O)c1ccc(OC)c(NCC#Cc2nn3c(N[C@H]4C[C@@H]5CC[C@H]([C@H]4F)N5C)cccc3c2SC(F)(F)F)c1 [Example 288] | < 10 | ≥ 10 | – | < 750 | 80 to 90 | < 750 | < 5000 | < 750
13 | CNC(=O)c1ccc(OC)c(NCC#Cc2cc3c(N[C@@H]4CCNC[C@@H]4F)nccn3c2SC(F)(F)F)c1 [Example 289] | < 10 | ≥ 10 | ≥ 10 | < 750 | > 90 | < 750 | 5000 to 8000 | < 750
14 | CCNC(=O)c1ccc(OC)c(NCC#Cc2cc3c(N[C@@H]4CCN(C)C[C@@H]4F)nccn3c2SC(F)(F)F)c1 [Example 290] | < 10 | ≥ 10 | – | < 750 | > 90 | < 750 | ≥ 10000 | < 750

Second part, led by results:

Row | Kd [1] [nM] | ΔTm at 10 µM [2] [°C] | ΔTm at 100 µM [2] [°C] | AC50 [3] [nM] | Emax [3] [%] | IC50 [5] [nM] | IC50 [6] [nM] | SMILES | IC50 [4] [nM]
15 | < 10 | 5 to 10 | ≥ 10 | 1500 to 3000 | < 70 | 1500 to 3000 | 8000 to 10000 | CNC(=O)c1ccc(OC)c(NCC#Cc2nc3c(N[C@H]4C[C@@H]5CC[C@H]4N5)cccn3c2SC(F)(F)F)c1 [Example 245] | < 750
16 | < 10 | ≥ 10 | – | < 750 | 80 to 90 | < 750 | 5000 to 8000 | CNC(=O)c1ccc(OC)c(NCC#Cc2nn3c(N[C@@H]4CNC[C@@H]4F)cccc3c2SC(F)(F)F)c1 [Example 250] | < 750
17 | < 10 | ≥ 10 | – | < 750 | 80 to 90 | < 750 | ≥ 10000 | CNC(=O)c1ccc(OC)c(NCC#Cc2nn3c(N[C@@H]4CN(C)C[C@@H]4F)cccc3c2SC(F)(F)F)c1 [Example 252] | < 750
18 | < 10 | ≥ 10 | – | < 750 | 80 to 90 | < 750 | ≥ 10000 | CNC(=O)c1ccc(OC)c(NCC#Cc2nn3c(N[C@@H]4CN(C)C[C@@H]4F)cccc3c2SC(F)(F)F)n1 [Example 253] | < 750
19 | < 10 | ≥ 10 | – | < 750 | 80 to 90 | < 750 | ≥ 10000 | CNC(=O)c1cnc(OC)c(NCC#Cc2nc3c(N[C@@H]4CCN(C)C[C@@H]4F)nccn3c2SC(F)(F)F)c1 [Example 254] | < 750
20 | < 10 | ≥ 10 | ≥ 10 | < 750 | > 90 | < 750 | 8000 to 10000 | CNC(=O)c1cnc(OC)c(NCC#Cc2cc3c(N[C@@H]4CCN(C)C[C@@H]4F)nccn3c2SC(F)(F)F)c1 [Example 255] | < 750
21 | < 10 | ≥ 10 | – | < 750 | > 90 | < 750 | 5000 to 8000 | CNC(=O)c1cnc(OC)c(NCC#Cc2cc3c(N[C@@H]4CCN(C)C[C@@H]4F)cccn3c2SC(F)(F)F)c1 [Example 256] | < 750
22 | < 10 | ≥ 10 | – | < 750 | 80 to 90 | < 750 | ≥ 10000 | COc1cc(P(C)(C)=O)ccc1NCC#Cc1cc2c(N[C@@H]3CCN(C)C[C@@H]3F)nccn2c1SC(F)F [Example 257] | < 750
23 | < 10 | ≥ 10 | – | < 750 | 70 to 80 | < 750 | ≥ 10000 | CNC(=O)c1cnc(OC)c(NCC#Cc2nc3c(N[C@@H]4CCNC[C@@H]4F)cccn3c2SC(F)(F)F)c1 [Example 258] | < 750
